In patent publication US20260345593A1, “ORAL FORMULATION OF N-PYRIDINYL ACETAMIDE DERIVATIVE FOR TREATING INTERSTITIAL LUNG DISEASE” (AstraZeneca AB, priority 2022, published 2026):
Read-outs that look alike come from different tables or passages of the source.

Columns and labels:
[1] = Example 1, first clinical study: pharmacokinetics in healthy subjects; format: in vivo, human; details: for half-life / Tmax: in vivo; for half-life: read-out: geometric mean terminal half-life
Protocol: This study is in two parts—part 1 involves testing a single ascending dose, whilst part 2 involves testing multiple ascending doses.
Part 1 comprises a Screening Period of a maximum of 6 weeks. This is followed by a Treatment Period during which subjects are resident at the Clinical Unit from 1 day before investigational medicinal product (IMP) administration (Day −1) until at least 72 hours after IMP administration (Day 4). Subjects receive a single oral dose of AZD5055 or placebo on Day 1. This is followed by a Follow-up Visit within 6±1 day after the IMP dose.
(§1) Part 2 comprises a Screening Period of a maximum of 6 weeks. This is followed by a treatment period during which subjects are resident at the Clinical Unit from 1 day before IMP administration (Day −1) until at least 72 hours after the last dose given on Day 16 (Day 19). Subjects are dosed for a total of 15 days and receive a single once daily morning dose of AZD5055 or placebo on Day 1 and on Days 3 through Day 16, with no dosing on Day 2. This is followed up a Follow-up Visit within 6±1 day after the IMP dose, and an additional Follow-up Visit within 29±2 days after the last IMP dose.
(§2) For cohorts with QD dosing regimens, the Screening Period is followed by a Treatment Period during which subjects are resident at the Clinical Unit from 1 day before IMP administration (Day −1) until at least 72 hours after the last dose given on Day 16 (Day 19). Subjects are dosed for a total of 15 days, receiving a single QD morning dose of AZD5055 or placebo on Day 1 and on Days 3 through Day 16.
(§3) For cohorts with BID dosing regimens, the Screening Period is followed by a Treatment Period during which subjects are resident at the Clinical Unit from 1 day before IMP administration (Day −1) until at least 72 hours after the last dose given on Day 16 (Day 19).
(§4) Subjects are dosed for a total of 15 days, receiving a single morning dose of AZD5055 or placebo on Day 1 and Day 16, and repeated BID dosing on Day 3 through Day 15, 12 hours (±30 minutes) apart.
(§5) The study was conducted in healthy male and healthy female subjects of non-childbearing potential with suitable veins for cannulation or repeated venipuncture. […] Also, the subjects were aged 18 to 55 years inclusive for men and women in Part 1 and only men in Part 2. For female subjects in Part 2, the age range was 18 to 49 years inclusive.
(§6) In Part 1 of the study, 3 dose levels of AZD5055 were investigated in 3 cohorts. Each cohort included 8 subjects. Within each cohort, 6 subjects were randomized to receive AZD5055, and 2 subjects were randomized to receive placebo. In Part 2 of the study, 3 dose levels of AZD5055 were investigated in 3 cohorts. In each cohort, 9 subjects were randomized to receive AZD5055, and 3 subjects were randomized to receive placebo.
Primary PK parameters: Cmax, AUCinf, and AUClast; secondary PK parameters: including but not limited to tmax, AUC (0-12) or AUC (0-24) (the one not being the primary parameter), t1/2λz, MRTinf, CL/F, Vz/F, Rac, TCP, Ae(t1-t2), fe (t1-t2), and CLR.
No formal statistical hypothesis testing was performed. The analyses of safety, tolerability, PK, and PD data was summarized descriptively by treatment/dose/study day separately using appropriate descriptive statistics including tables, listings, and graphs, as appropriate. Preliminary dose proportionality of AZD5055 after single dose (Day 1) in Part 1 and 2 and multiple dose (Day 16) in Part 2 was assessed graphically and was analyzed using the power model approach with the logarithm of PK parameters (AUC and Cmax on Day 1) and (AUC(0-τ) and Cmax on Day 16) as the dependent variable and the logarithm of the dose as the independent variable. For data collected in Part 2, the time dependency of the PK was evaluated by comparing AUC(0-τ) (Day 16) with AUC (Day 1) and accumulation was evaluated by comparing AUC(0-τ) (Day 16) with AUC(0-τ) (Day 1) and Cmax (Day 16) with Cmax (Day 1). […]

healthy subjects = assay: Example 1 Part 2 (MAD): safety in healthy subjects; format: in vivo, human
Protocol: as §1, §2, §3, §4
For both cohorts, the Treatment Period is followed by a Follow-up Visit within 6±1 day after the last IMP dose, and an additional Follow-up Visit within 29±2 days after the last IMP dose.
as §5, §6
Safety endpoints included adverse events; vital signs (supine blood pressure, pulse, respiratory rate, and body temperature); 12-lead ECG, 12-lead dECG, telemetry, physical examinations, clinical laboratory assessments (hematology, clinical chemistry [including serum creatinine and creatine phosphokinase], urinalysis [including protein and albumin creatinine ratios], and cardiac biomarkers [including cardiac Troponin T (cTNT), cardiac Troponin I; (cTNI), and B type natriuretic peptide]), and peripheral oxygen saturation (SpO2).
All safety data (scheduled and unscheduled) were presented in the data listings. Continuous variables were summarized using descriptive statistics (n, mean, standard deviation, min, median, max) by treatment. Categorical variables were summarized in frequency tables (frequency and proportion) by treatment (both Parts 1 and 2). The analysis of the safety variables was based on the safety analysis set. Adverse events were summarized by System Organ Class (SOC) and Preferred Term (PT) using Medical Dictionary for Regulatory Activities vocabulary. Furthermore, listings of serious adverse events (SAEs) and adverse events leading to the discontinuation of IMP (DAEs) were made and the number of subjects who had any adverse events (AEs), SAEs, DAEs and AEs with severe intensity were summarized. Adverse events that occur before dosing were reported separately. Tabulations and listings of data for ECG, vital signs, AEs, and clinical laboratory tests, measurements were presented.

[2] = predicted human absorption, clearance and bioavailability
Protocol: Based on in vitro data, the predicted human oral bioavailability is 70%. The observed oral bioavailability in several animal species is in the range 40% to 60%.
Therefore, a conservative estimate is that Cmax following an IV infusion over 20 minutes is less than 2-fold higher compared to an oral dose, after correcting for F.

[3] = test system: renal fibrosis in a UUO model in mice; details: mice (Bunyard 2019); cited from earlier work
[4] = Part 2, across all AZD5055 doses

Cc1cc(-c2nccc3c2ccn3CC(=O)Nc2ccc(-c3cnccn3)cn2)ccn1 [AZD5055, 2-[4-(2-methyl-4-pyridyl)pyrrolo[3,2-c]pyridin-1-yl]-N-(5-pyrazin-2-yl-2-pyridyl)acetamide]
dose proportionality of exposure ([1]; 5 to 40 mg, single and multiple dose): increased approximately proportionally
half-life ([1]; human, po, multiple daily administration): 12.2 to 17.2 h
Tmax ([1]; human, po, multiple daily doses of 5 to 20 mg, read-out: tmax (medians)): 1 to 1.3 h
Tmax ([1]; human, po, observed, oral dose, read-out: tmax (time to Cmax)): 1 h
half-life ([1]; human, po, single administration): 9.7 to 11.4 h
dose excreted ([1]; human, urine, po, percent of dose administered, read-out: dose recovered unchanged in urine): < 2.3%
between-subject variability in Cmax ([1]; low): < 25%
decline of concentrations ([1]; oral): declined in a bi-phasic manner
renal clearance share of total clearance ([1]; oral): small share of AZD5055 total clearance
absorption ([1]; oral suspension, single ascending doses of 7 to 40 mg): rapidly absorbed
accumulation ([1]; repeat daily administration): Little to moderate accumulation
tolerability (healthy subjects; 5, 15 and 20 mg QD, oral suspension): well tolerated at all administered doses
AE intensity, majority of AEs (healthy subjects; Part 2): Grade 1 (mild)
AEs leading to discontinuation of AZD5055 (healthy subjects; Part 2): 3 AEs
SAEs or deaths (healthy subjects; Part 2): no SAEs or deaths
clinical laboratory results, vital signs, physical examinations, ECGs (healthy subjects; Part 2): No clinically relevant trends
trends for AEs by SOC or PT (healthy subjects; Part 2): no notable trends
subjects with AE of ventricular tachycardia/non-sustained ventricular tachycardia, Grade 2, possibly related (healthy subjects; Part 2, 5 mg dose): Two
subjects with AE of coronavirus infection, Grade 1, not considered related (healthy subjects; Part 2, 15 mg dose): One
AEs possibly related to AZD5055, total (healthy subjects; [4]): 7 AEs
subjects with an AE of Grade 2 (moderate) intensity (healthy subjects; [4]): 5 subjects
subjects with at least one AE (healthy subjects; [4]): 21 subjects
AE outcome (healthy subjects; Part 2, all AEs, by end of study): recovered/resolved by the end of the study
possibly related AEs: breath odour (healthy subjects; Part 2, number of AEs): 1
possibly related AEs: dysgeusia (healthy subjects; Part 2, number of AEs): 1
possibly related AEs: headache (healthy subjects; Part 2, number of AEs): 3
possibly related AEs: photophobia (healthy subjects; Part 2, number of AEs): 1
possibly related AEs: ventricular tachycardia (healthy subjects; Part 2, number of AEs): 2
Cmax after 20-minute IV infusion relative to oral dose ([2]; conservative estimate, after correcting for F): less than 2 fold
dose absorbed within 20 minutes ([2]; estimated from tmax of 1 hour, oral): approximately 75%
renal fibrosis, UUO model [3]: reduces
